Consider 74 compounds from patent US8765779B2, “Tricyclic derivatives and their pharmaceutical use and compositions” (Cephalon, Inc., priority 2009, dated 2014).

For orientation: Ki means a measure of affinity in units of concentration, obtained from inhibition or displacement.

The structures appear in SMILES notation. A value given as a limit tells only on which side of the number the result lay.

The target in the first test is T1, human 5-HT6 receptor (Homo sapiens, UniProt P50406).
T1 construct: host or cells: CHO-K1 cells, stably transfected; membranes prepared in house
T1 sequence (P50406 whole entry): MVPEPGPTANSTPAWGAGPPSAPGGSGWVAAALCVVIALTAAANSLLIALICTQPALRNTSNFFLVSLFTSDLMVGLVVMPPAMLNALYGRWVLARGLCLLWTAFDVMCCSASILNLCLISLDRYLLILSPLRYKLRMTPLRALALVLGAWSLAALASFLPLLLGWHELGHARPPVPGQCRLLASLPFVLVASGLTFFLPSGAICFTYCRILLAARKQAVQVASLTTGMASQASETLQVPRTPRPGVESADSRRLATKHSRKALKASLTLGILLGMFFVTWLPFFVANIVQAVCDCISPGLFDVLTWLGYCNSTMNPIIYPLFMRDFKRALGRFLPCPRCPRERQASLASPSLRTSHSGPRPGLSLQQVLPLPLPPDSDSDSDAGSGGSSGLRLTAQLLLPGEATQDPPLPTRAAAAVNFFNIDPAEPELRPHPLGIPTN
The experiment in a line: Human 5-HT6 Receptor Binding Assay ([3H]LSD displacement, scintillation beads). The note with it: membranes of CHO-K1 cells with recombinant human 5-HT6, 4 nM [3H]LSD; Table 1, class symbols; read-out: h5-HT6 (Ki).
On to `O=S(=O)(c1ccccc1)c1ccc2c(c1)OC1CNCCC21` (stereo not drawn) [Example 326, 7-(phenylsulfonyl)-1,2,3,4,4a,9a-hexahydro[1]benzofuro[2,3-c]pyridine], for which the inhibition constant (Ki) is less than 0.5 µM. Take `Cc1cccc([S+]([O-])c2ccc3c(c2)OC2CNCCC32)n1` (stereo not drawn) [Example 327]: the Ki is more than 1 µM. As to `Cc1cccc(S(=O)(=O)c2ccc3c(c2)OC2CNCCC32)n1` (stereo not drawn) [Example 328], the inhibition constant Ki was less than 0.5 µM. Still for that read-out and setting: under `O=S(=O)(c1cc[n+]([O-])cc1)c1ccc2c(c1)OC1CNCCC21` (stereo not drawn) [Example 329] stands more than 1 µM; under `O=S(=O)(c1ccncc1)c1ccc2c(c1)OC1CNCCC21` (stereo not drawn) [Example 330], more than 1 µM.

Turning to `O=S(=O)(c1ccc2c(c1)OC1CNCCC21)c1ccccn1` (stereo not drawn) [Example 331], the inhibition constant (Ki) was 0.5 to 1 µM.

With `O=S(=O)(c1ccc2c(c1)OC1CNCCC21)c1cccc2cccnc12` (stereo not drawn) [Example 332], the Ki is less than 0.5 µM. Same read-out and setting: in the case of `O=S(=O)(c1ccc2c(c1)OC1CNCCC21)c1cccc2cccnc12` (stereo not drawn) [Example 333] it was less than 0.5 µM; in that of `O=S(=O)(c1ccccc1)c1ccc2c(c1)C1CCNCC1O2` (stereo not drawn) [Example 334, 6-(phenylsulfonyl)-1,2,3,4,4a,9a-hexahydro[1]benzofuro[2,3-c]pyridine], 0.5 to 1 µM.

Take `O=S(=O)(c1ccc(Cl)cc1)c1ccc2c(c1)C1CCNCC1O2` (stereo not drawn) [Example 335]: the Ki is more than 1 µM.

As to `COc1ccc(S(=O)(=O)c2ccc3c(c2)C2CCNCC2O3)cc1` (stereo not drawn) [Example 336], the inhibition constant (Ki) was more than 1 µM. Same read-out and setting: in the case of `O=S(=O)(c1ccccc1)c1ccc2c(c1)C1CCNCC1O2` (stereo not drawn) [Example 337, 6-(phenylsulfonyl)-1,2,3,4,4a,9a-hexahydro[1]benzofuro[2,3-c]pyridine] it was more than 1 µM. For the compound `O=S(=O)(c1cccc(Cl)c1Cl)c1cccc2c1OC1CNCCC21` (stereo not drawn) [Example 338], the inhibition constant Ki was less than 0.5 µM. Same read-out and setting: under `O=S(=O)(c1ccccc1)c1ccc2c3c(oc2c1)CNCC3` [Example 339, 7-(phenylsulfonyl)-1,2,3,4-tetrahydro[1]benzofuro[2,3-c]pyridine] stands less than 0.5 µM; under `O=S(=O)(c1cccc(Cl)c1)c1ccc2c3c(oc2c1)CNCC3` [Example 340, 7-[(3-chlorophenyl)sulfonyl]-1,2,3,4-tetrahydro[1]benzofuro[2,3-c]pyridine], less than 0.5 µM.

As for `O=S(=O)(c1cccc(F)c1)c1ccc2c3c(oc2c1)CNCC3` [Example 341], the Ki was less than 0.5 µM. The same measure, in the same setting: under `Nc1cccc(S(=O)(=O)c2ccc3c4c(oc3c2)CNCC4)c1` [Example 342] stands less than 0.5 µM.

Regarding `Cc1cccc(S(=O)(=O)c2ccc3c4c(oc3c2)CNCC4)n1` [Example 343, 7-[(6-methylpyridin-2-yl)sulfonyl]-1,2,3,4-tetrahydro[1]benzofuro[2,3-c]pyridine], the Ki was less than 0.5 µM.

Regarding `O=S(=O)(c1ccncc1)c1ccc2c3c(oc2c1)CNCC3` [Example 344], the Ki fell in the range of 0.5 to 1 µM. Take `O=S(=O)(c1ccc2c3c(oc2c1)CNCC3)c1ccccn1` [Example 345]: the inhibition constant Ki was less than 0.5 µM.

In the case of `O=S(=O)(c1ccc2c3c(oc2c1)CNCC3)c1cccc2cccnc12` [Example 346], the inhibitory constant (Ki) is less than 0.5 µM. Same read-out and setting: under `CN(C)c1cccc(S(=O)(=O)c2ccc3c4c(oc3c2)CNCC4)c1` [Example 347] stands less than 0.5 µM; under `O=S(=O)(c1ccccc1)c1ccc2oc3c(c2c1)CCNC3` [Example 348], less than 0.5 µM; under `Nc1cccc(S(=O)(=O)c2ccc3oc4c(c3c2)CCNC4)c1` [Example 349], less than 0.5 µM. For `Cc1cccc(S(=O)(=O)c2ccc3oc4c(c3c2)CCNC4)n1` [Example 350], the Ki is less than 0.5 µM. For the compound `O=S(=O)(c1cc[n+]([O-])cc1)c1ccc2oc3c(c2c1)CCNC3` [Example 351], the Ki was more than 1 µM.

For the compound `O=S(=O)(c1ccncc1)c1ccc2oc3c(c2c1)CCNC3` [Example 352], the Ki is more than 1 µM. `O=S(=O)(c1ccc2oc3c(c2c1)CCNC3)c1ccccn1` [Example 353]: the Ki was less than 0.5 µM.

In the case of `O=S(=O)(c1ccc2oc3c(c2c1)CCNC3)c1cccc2cccnc12` [Example 354], the Ki was less than 0.5 µM.

Consider `CN(C)c1cccc(S(=O)(=O)c2ccc3oc4c(c3c2)CCNC4)c1` [Example 355], for which the Ki is more than 1 µM. With `CC12CCNCC1Oc1cc(S(=O)(=O)c3ccc(F)cc3)ccc12` (stereo not drawn) [Example 356], the Ki is 0.5 to 1 µM. As to `CC12CCNCC1Oc1cc(S(=O)(=O)c3cccc(C(F)(F)F)c3)ccc12` (stereo not drawn) [Example 357], the Ki is less than 0.5 µM. As to `CC12CCNCC1Oc1cc(S(=O)(=O)c3cccc(OC(F)(F)F)c3)ccc12` (stereo not drawn) [Example 358, 4a-methyl-7-{[3-(trifluoromethoxy)phenyl]sulfo-nyl}-1,2,3,4,4a,9a-hexahydro[1]benzofuro[2,3-c]pyridine], the Ki is less than 0.5 µM. Still for that read-out and setting: under `CC12CCNCC1Oc1cc(S(=O)(=O)c3cc(F)cc(F)c3)ccc12` (stereo not drawn) [Example 359] stands less than 0.5 µM.

With `CC1(C)NCCc2c1oc1cc(S(=O)(=O)c3cccc(F)c3F)ccc21` [Example 365], the Ki was less than 0.5 µM.

Regarding `CC1(C)NCCc2c1oc1cc(S(=O)(=O)c3cc[nH]c(=O)c3)ccc21` [Example 366], the Ki was less than 0.5 µM.

In the case of `CC1(C)NCCc2c1oc1cc(S(=O)(=O)c3cncc(Br)c3)ccc21` [Example 367], the inhibitory constant (Ki) is less than 0.5 µM. As to `CC1(C)NCCc2c1oc1cc(S(=O)(=O)c3cccnc3N3CCOCC3)ccc21` [Example 368], the Ki was less than 0.5 µM. Still for that read-out and setting: in the case of `COc1cc(S(=O)(=O)c2ccc3c4c(oc3c2)C(C)(C)NCC4)c[n+]([O-])c1` [Example 369] it was more than 1 µM; in that of `COc1cncc(S(=O)(=O)c2ccc3c4c(oc3c2)C(C)(C)NCC4)c1` [Example 370], less than 0.5 µM; in that of `CC1(C)NCCc2c1oc1cc(S(=O)(=O)c3cc(Cl)c[n+]([O-])c3N)ccc21` [Example 371], less than 0.5 µM.

For `CC1(C)NCCc2c1oc1cc(S(=O)(=O)c3cc(Cl)cnc3N)ccc21` [Example 372], the Ki is less than 0.5 µM. Take `CC1(C)NCCc2c1oc1cc(S(=O)(=O)c3cc(Cl)cnc3O)ccc21` [Example 373]: the Ki was more than 1 µM.

In the case of `Cc1c(S(=O)(=O)c2ccc3c4c(oc3c2)C(C)(C)NCC4)ccc[n+]1[O-]` [Example 374], the Ki was more than 1 µM. As for `Cc1ncccc1S(=O)(=O)c1ccc2c3c(oc2c1)C(C)(C)NCC3` [Example 375], the Ki was less than 0.5 µM. With `CC1(C)NCCc2c1oc1cc(S(=O)(=O)c3cncc(Cl)c3)ccc21` [Example 376], the inhibition constant Ki was less than 0.5 µM. Consider `CC1(C)NCCc2c1oc1cc(S(=O)(=O)c3c[nH]c(=O)c(C(F)(F)F)c3)ccc21` [Example 377], for which the inhibitory constant (Ki) is more than 1 µM.

As for `CC1(C)NCCc2c1oc1cc(S(=O)(=O)c3cccnc3C(F)(F)F)ccc21` [Example 378], the Ki is less than 0.5 µM. For `Cc1ccncc1S(=O)(=O)c1ccc2c3c(oc2c1)C(C)(C)NCC3` [Example 379], the Ki is less than 0.5 µM. In the case of `CC1(C)NCCc2c1oc1cc(S(=O)(=O)c3ccc(N4CCCC4)nc3)ccc21` [Example 380], the Ki is more than 1 µM. As to `CC1(C)NCCc2c1oc1cc(S(=O)(=O)c3cncc(F)c3)ccc21` [Example 381], the inhibition constant Ki is less than 0.5 µM. On to `O=S(=O)(c1ccc2c(c1)OC1CNCCC21)c1cccnc1F` (stereo not drawn) [Example 382], for which the Ki was less than 0.5 µM.

With `[O-][S+](c1ccc2c(c1)OC1CNCCC21)c1cccnc1F` (stereo not drawn) [Example 383], the Ki is more than 1 µM. On the same count and under the same terms, under `[O-][S+](c1ccc2c(c1)OC1CNCCC21)c1cccc(F)c1F` (stereo not drawn) [Example 384] stands less than 0.5 µM. As for `[O-][S+](c1ccc2c(c1)OC1CNCCC21)c1cc(F)cc(F)c1F` (stereo not drawn) [Example 385], the inhibitory constant (Ki) is more than 1 µM. `O=S(=O)(c1ccc2c(c1)OC1CNCCC21)c1cc(F)cc(F)c1F` (stereo not drawn) [Example 386]: the Ki was less than 0.5 µM.

For the compound `COC(=O)c1cc(Cl)cc(S(=O)(=O)c2ccc3c(c2)OC2CNCCC32)c1` (stereo not drawn) [Example 387], the Ki was more than 1 µM. On the same count and under the same terms, in the case of `O=S(=O)(c1ccc2c(c1)OC1CNCCC21)c1cccc(F)c1F` (stereo not drawn) [Example 388] it was less than 0.5 µM.

For `[O-][S+](c1ccc2c(c1)OC1CNCCC21)c1cccnc1Cl` (stereo not drawn) [Example 389], the Ki is more than 1 µM. Regarding `O=S(=O)(c1ccc2c(c1)OC1CNCCC21)c1cccnc1Cl` (stereo not drawn) [Example 390], the inhibition constant Ki is less than 0.5 µM.

For `[O-][S+](c1cncc(Cl)c1)c1ccc2c(c1)OC1CNCCC21` (stereo not drawn) [Example 391], the Ki was more than 1 µM.

`O=S(=O)(c1cncc(Cl)c1)c1ccc2c(c1)OC1CNCCC21` (stereo not drawn) [Example 392]: the Ki was less than 0.5 µM. In the case of `O=S(=O)(c1cccnc1)c1ccc2c(c1)OC1CNCCC21` (stereo not drawn) [Example 393], the Ki was more than 1 µM. The same measure, in the same setting: in the case of `O=S(=O)(c1ccc2c(c1)OC1CNCCC21)c1cccnc1OCC(F)(F)F` (stereo not drawn) [Example 394] it was less than 0.5 µM; in that of `O=S(=O)(c1ccc2c(c1)OC1CNCCC21)c1cccnc1OCC(F)(F)F` (stereo not drawn) [Example 395], less than 0.5 µM. Same read-out and setting: in the case of `[O-][S+](c1cncc(F)c1)c1ccc2c(c1)OC1CNCCC21` (stereo not drawn) [Example 396] it was more than 1 µM; in that of `O=S(=O)(c1cncc(F)c1)c1ccc2c(c1)OC1CNCCC21` (stereo not drawn) [Example 397], more than 1 µM; in that of `O=S(=O)(c1ccc2c(c1)OC1CNCCC21)c1cccnc1F` (stereo not drawn) [Example 398], less than 0.5 µM. In the case of `O=S(=O)(c1ccc2c(c1)OC1CNCCC21)c1cccc(F)c1F` (stereo not drawn) [Example 399], the Ki is less than 0.5 µM. Same read-out and setting: under `O=S(=O)(c1ccc2c(c1)OC1CNCCC21)c1cc(F)cc(F)c1F` (stereo not drawn) [Example 400] stands less than 0.5 µM. On the same count and under the same terms, under `CCOc1cc(F)cc(S(=O)(=O)c2ccc3c(c2)OC2CNCCC32)c1` (stereo not drawn) [Example 401] stands less than 0.5 µM; under `CC(C)COc1cc(F)cc(S(=O)(=O)c2ccc3c(c2)OC2CNCCC32)c1` (stereo not drawn) [Example 402], less than 0.5 µM; under `O=S(=O)(c1cc(F)cc(OCC(F)(F)F)c1)c1ccc2c(c1)OC1CNCCC21` (stereo not drawn) [Example 403], less than 0.5 µM. On to `COc1cccc(S(=O)(=O)c2ccc3c(c2)OC2CNCCC32)c1F` (stereo not drawn) [Example 404], for which the inhibition constant (Ki) is less than 0.5 µM.

Staying with this test, now noted: membranes of CHO-K1 cells with recombinant human 5-HT6, 4 nM [3H]LSD; specific data; read-out: h5-HT6 (Ki).
Take `Cc1cccc(S(=O)(=O)c2ccc3c4c(oc3c2)CNCC4)n1` [Example 343, 7-[(6-methylpyridin-2-yl)sulfonyl]-1,2,3,4-tetrahydro[1]benzofuro[2,3-c]pyridine]: the Ki stood at 0.0066 µM.
